Reference: PMC7029851, “Antibacterial activity of novel dual bacterial DNA type II topoisomerase inhibitors” (PLoS ONE, 2020)
Where a name gives a salt, the structure may show the parent alone. Read-outs that look alike come from different tables or passages of the source.

Legend:
A. baumannii APV00473 = assay: MIC, broth microdilution; format: cell-based; settings: Acinetobacter baumannii; A. baumannii APV00473, ciprofloxacin-resistant
Method: (§1) MICs were determined by the broth microdilution method (the agar dilution method was used only for N. gonorrhoeae) according to CLSI guidelines.

A. baumannii ATCC 19606 = assay: MIC, broth microdilution; format: cell-based; settings: Acinetobacter baumannii, ATCC19606; A. baumannii ATCC 19606, ciprofloxacin-susceptible
Method: as §1

E. coli 4SI = assay: MIC, broth microdilution; format: cell-based; settings: Escherichia coli, ciprofloxacin-resistant
Method: as §1

S. pyogenes APV00074 = assay: MIC, broth microdilution; format: cell-based; settings: Streptococcus pyogenes; S. pyogenes APV00074, ciprofloxacin-susceptible
Method: as §1

S. pyogenes APV00083 = assay: MIC, broth microdilution; format: cell-based; settings: Streptococcus pyogenes; S. pyogenes APV00083, ciprofloxacin-susceptible
Method: as §1

[1] = system: H. influenzae AcrA- mutant; assay: microbe, parasite or virus in culture; format: cell-based; settings: Haemophilus influenzae
Method: (§2) The bacterial reference strains used in this study were purchased from ATCC (American Type Culture Collection) via LGC Standards (Middlesex, UK). […] Clinical MDR isolates were provided by Aptuit, the IHMA Europa Sàrl repository (Epalinges, Switzerland) and the Statens Serum Institute (Copenhagen, Denmark).
as §1

[2] = system: K. pneumoniae AcrAB- mutant; assay: microbe, parasite or virus in culture; format: cell-based; settings: Klebsiella pneumoniae
Method: as §2, §1

[3] = system: S. aureus clinical isolates (n = 10); assay: microbe, parasite or virus in culture; format: cell-based, Staphylococcus aureus; settings: for MIC range / MIC50 / MIC90: S. aureus MDR clinical isolates (n = 10)
Method: as §2, §1
(§3) The results obtained using clinical isolates are reported as MIC50 and MIC90 values.

[4] = system: A. baumannii clinical isolates (n = 10); assay: microbe, parasite or virus in culture; format: cell-based, Acinetobacter baumannii; settings: for MIC50 / MIC90: Acinetobacter baumannii
Method: as §2, §1, §3

C. difficile ATCC 700057 = assay: MIC, broth microdilution; format: cell-based, Clostridium difficile; settings: Clostridioides difficile, ATCC700057
Method: MICs were determined by the broth microdilution method (the agar dilution method was used only for N. gonorrhoeae) according to CLSI guidelines. […] The MIC values of antibiotics used in clinical practice were interpreted according to the susceptibility interpretive criteria reported in the appropriate CLSI Tables (M100-S25, CLSI, 2015).

[5] = system: C. difficile clinical isolates (n = 21); assay: MIC, multidrug-resistant clinical isolates; format: cell-based, Clostridium difficile; settings: Clostridioides difficile, C. difficile clinical isolates (n = 21)
Method: as §2, §1, §3

[6] = system: E. coli clinical isolates (n = 36); assay: MIC, multidrug-resistant clinical isolates; format: cell-based, Escherichia coli; settings: Escherichia coli, E. coli MDR clinical isolates (n = 36)
Method: as §2, §1, §3

E. coli ATCC 25922 [7] = assay: Minimal bactericidal concentration; format: cell-based, Escherichia coli
Method: (§4) Minimal bactericidal concentrations (MBCs) were determined according to the procedure described by Knapp. Viable counts were performed after plates were incubated at 37°C for 24 hours. The MBC was defined as the lowest concentration that reduced the viability of the initial bacterial inoculum by ≥99.9%.

S. aureus ATCC 29213 [8] = assay: Minimal bactericidal concentration; format: cell-based, Staphylococcus aureus
Method: as §4

S. aureus BAA-1720 = assay: Minimal bactericidal concentration; format: cell-based, Staphylococcus aureus
Method: as §4

E. coli ATCC 25922 [9] = assay: Time-kill assay; format: cell-based, Escherichia coli; settings: 1× to 4× MIC, over 24 hours
Method: (§5) Time-kill experiments were performed according to the procedure reported by Knapp. […] A drug-free control was included in each experiment. The bacterial cultures were standardized to obtain an initial inoculum that ranged from 5×10^5 to 5×10^6 CFU/ml. The cultures were incubated at 37°C in a shaking bath. At 0, 2, 4, 8 and 24-hour intervals, viable counts were performed by spotting (in triplicate) 10 μl aliquots of suitable dilutions of the cultures onto Mueller-Hinton agar (MHA, Oxoid, Basingstoke, UK) plates. After incubation at 37°C for 24 hours, the bactericidal activity, namely, the ability to reduce the initial inoculum by 3 log10 CFU/ml, was assessed for each tested concentration over time.

S. aureus ATCC 29213 [10] = assay: Time-kill assay; format: cell-based, Staphylococcus aureus; settings: 1× to 4× MIC (compound 1 also 8× and 16× MIC), over 24 hours
Method: as §5

S. aureus ATCC BAA-1720 = assay: Time-kill assay; format: cell-based, Staphylococcus aureus; settings: 1× to 4× MIC, over 24 hours
Method: as §5

[11] = system: HepG2 mammalian cell line; assay: Cytotoxicity assay (CellTiter-Blue); format: cell-based; settings: Homo sapiens, HepG2, 24 hours of incubation, read-out: IC50 mammalian cell viability
Method: Cytotoxicity assay. Cytotoxicity of compounds 1 and 2 was assessed, after 24 hours of incubation in EMEM containing 10% fetal bovine serum, HepG2 mammalian cell line viability was evaluated using CellTiter-Blue Cell Viability Assay (Promega, WI, USA) according to the manufacturer’s instructions. Concentration-response curves were obtained by non-linear regression analysis using the GraphPad PRISM 6 software.

hERG channel = molecular target: T1, hERG channel (Homo sapiens, UniProt Q12809); assay: hERG automated patch clamp assay; format: cell-based; settings: CHO-K1, read-out: IC50 against hERG channels
T1 construct: expressed in transfected cells; host or cells: CHO-K1
T1 sequence (Q12809 whole entry): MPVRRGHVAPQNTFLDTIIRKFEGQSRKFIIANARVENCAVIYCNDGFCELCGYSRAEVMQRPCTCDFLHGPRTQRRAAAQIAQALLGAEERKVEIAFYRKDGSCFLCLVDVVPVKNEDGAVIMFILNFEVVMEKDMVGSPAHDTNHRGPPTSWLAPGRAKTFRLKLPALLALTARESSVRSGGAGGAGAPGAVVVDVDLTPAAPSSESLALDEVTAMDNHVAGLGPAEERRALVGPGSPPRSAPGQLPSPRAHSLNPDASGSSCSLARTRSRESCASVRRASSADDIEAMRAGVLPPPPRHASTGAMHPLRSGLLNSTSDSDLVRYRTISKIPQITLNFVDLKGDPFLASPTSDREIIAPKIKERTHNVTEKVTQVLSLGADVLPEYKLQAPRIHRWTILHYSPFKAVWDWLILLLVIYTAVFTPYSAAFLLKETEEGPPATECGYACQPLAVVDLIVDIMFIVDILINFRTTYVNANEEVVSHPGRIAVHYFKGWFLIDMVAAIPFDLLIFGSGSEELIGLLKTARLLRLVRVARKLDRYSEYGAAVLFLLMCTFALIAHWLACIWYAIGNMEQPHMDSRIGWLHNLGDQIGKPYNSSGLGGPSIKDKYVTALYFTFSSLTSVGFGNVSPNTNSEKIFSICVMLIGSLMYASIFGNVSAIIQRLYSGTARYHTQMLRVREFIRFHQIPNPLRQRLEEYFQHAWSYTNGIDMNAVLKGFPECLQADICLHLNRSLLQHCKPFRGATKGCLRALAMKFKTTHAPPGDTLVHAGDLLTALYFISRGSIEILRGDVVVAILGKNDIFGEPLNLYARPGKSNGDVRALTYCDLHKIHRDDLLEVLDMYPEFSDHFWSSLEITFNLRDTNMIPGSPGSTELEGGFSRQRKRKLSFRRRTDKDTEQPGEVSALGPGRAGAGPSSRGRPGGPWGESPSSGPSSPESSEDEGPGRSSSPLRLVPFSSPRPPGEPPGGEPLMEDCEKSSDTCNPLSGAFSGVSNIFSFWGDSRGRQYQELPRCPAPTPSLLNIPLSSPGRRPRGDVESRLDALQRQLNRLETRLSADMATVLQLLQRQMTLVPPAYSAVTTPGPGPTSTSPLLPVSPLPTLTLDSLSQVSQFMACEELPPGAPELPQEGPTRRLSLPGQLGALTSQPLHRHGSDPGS
Description: hERG automated patch clamp assay. The human recombinant ERG CHO-K1 cell line was used in an automated patch clamp assay (qPatch system) to evaluate the hERG channel blockade potential of compounds 1 and 2 [36]. Concentration (log) response curves were fitted to a logistic equation to generate estimates of the 50% inhibitory value.

[12] = Staphylococcus aureus, read-out: MIC50
[13] = Staphylococcus aureus, read-out: MIC90

## O=c1oc2ccc(F)cc2c2[nH]c(CN[C@H]3CC[C@H](n4c(=O)cnc5ncc(F)cc54)CC3)cc12 [Compound 4, 8-fluoro-2-({[trans-4-(7-fluoro-2-oxopyrido[2,3-b]pyrazin-1(2H)-yl)cyclohexyl]amino}methyl)[1]benzopyrano[4,3-b]pyrrol-4(1H)-one (formate salt)]
A. baumannii APV00473
  MIC: 0.12 µg/mL
A. baumannii ATCC 19606
  MIC: 0.5 µg/mL
E. coli 4SI
  MIC: 0.25 µg/mL
S. pyogenes APV00074
  MIC: 0.12 µg/mL
S. pyogenes APV00083
  MIC: 0.12 µg/mL
[1]
  MIC: ≤ 0.016 µg/mL
[2]
  MIC: 0.03 µg/mL
[3]
  MIC range: ≤0.06 to 0.5 µg/mL
[3]; [12]
  MIC50: 0.12 µg/mL
[3]; [13]
  MIC90: 0.5 µg/mL
[4]
  MIC range: ≤0.06 to 0.5 µg/mL
  MIC50: 0.25 µg/mL
  MIC90: 0.5 µg/mL

## Cl.N#Cc1ccc2ccc(=O)n([C@H]3CC[C@H](NCc4cc5c(=O)oc6ccc(F)cc6c5[nH]4)CC3)c2c1 [Compound 2, 1-(trans-4-{[(8-fluoro-4-oxo-1,4-dihydro[1]benzopyrano[4,3-b]pyrrol-2-yl)methyl]amino}cyclohexyl)-2-oxo-1,2-dihydroquinoline-7-carbonitrile hydrochloride]
A. baumannii APV00473
  MIC: 0.5 µg/mL
A. baumannii ATCC 19606
  MIC: 0.12 µg/mL
E. coli 4SI
  MIC: 0.5 µg/mL
S. pyogenes APV00074
  MIC: ≤ 0.06 µg/mL
S. pyogenes APV00083
  MIC: ≤ 0.06 µg/mL
C. difficile ATCC 700057
  MIC: 0.25 µg/mL
[1]
  MIC: ≤ 0.016 µg/mL
[2]
  MIC: ≤ 0.016 µg/mL
[3]
  MIC50: ≤ 0.06 µg/mL
  MIC90: ≤ 0.06 µg/mL
  MIC range: ≤0.06 µg/mL
[3]; Staphylococcus aureus, MRSA, S. aureus APV0063, MRSA
  MIC: ≤ 0.06 µg/mL
[3]; Staphylococcus aureus, MRSA, S. aureus APV0064, MRSA
  MIC: ≤ 0.06 µg/mL
[3]; Staphylococcus aureus, MRSA, S. aureus APV0065, MRSA
  MIC: ≤ 0.06 µg/mL
[3]; Staphylococcus aureus, S. aureus APV00045, M (macrolide resistance)
  MIC: ≤ 0.06 µg/mL
[3]; Staphylococcus aureus, S. aureus APV0048, MLSi
  MIC: ≤ 0.06 µg/mL
[3]; Staphylococcus aureus, S. aureus APV0049, MLSi
  MIC: ≤ 0.06 µg/mL
[3]; Staphylococcus aureus, S. aureus APV0052, MLSc
  MIC: ≤ 0.06 µg/mL
[3]; Staphylococcus aureus, S. aureus APV0053, MLSc
  MIC: ≤ 0.06 µg/mL
[3]; Staphylococcus aureus, S. aureus APV00280, M (macrolide resistance)
  MIC: ≤ 0.06 µg/mL
[3]; Staphylococcus aureus, S. aureus APV00281, M (macrolide resistance)
  MIC: ≤ 0.06 µg/mL
[3]; [12]
  MIC50: ≤ 0.06 µg/mL
[3]; [13]
  MIC90: ≤ 0.06 µg/mL
[5]; read-out: MIC50
  MIC50: 0.12 µg/mL
[5]; read-out: MIC90
  MIC90: 0.25 µg/mL
[5]; read-out: MIC range
  MIC: 0.06 to 0.25 µg/mL
[6]
  MIC: 0.5 to 4 µg/mL
[6]; read-out: MIC50
  MIC50: 1 µg/mL
[6]; read-out: MIC90
  MIC90: 2 µg/mL
[4]
  MIC range: ≤0.06 to 0.12 µg/mL
  MIC50: ≤ 0.06 µg/mL
  MIC90: 0.12 µg/mL
E. coli ATCC 25922 [7]
  MBC/MIC: 2
E. coli ATCC 25922 [7]; Escherichia coli, ATCC25922, ≥99.9% reduction of inoculum
  MBC: 1 µg/mL
S. aureus ATCC 29213 [8]
  MBC/MIC: 16
S. aureus ATCC 29213 [8]; Staphylococcus aureus, ATCC29213, ≥99.9% reduction of inoculum
  MBC: 0.5 µg/mL
S. aureus ATCC 29213 [8]; listed as compound 2
  MBC/MIC: ≥ 16
S. aureus BAA-1720
  MBC/MIC: 125
S. aureus BAA-1720; Staphylococcus aureus, BAA1720, ≥99.9% reduction of inoculum
  MBC: 2 µg/mL
S. aureus BAA-1720; listed as compound 2
  MBC/MIC: ≥ 16
E. coli ATCC 25922 [9]
  Bactericidal activity in time-kill (reduction of 3 log10 CFU/ml): no bactericidal activity
S. aureus ATCC 29213 [10]
  Bactericidal activity in time-kill (reduction of 3 log10 CFU/ml): no bactericidal activity
S. aureus ATCC BAA-1720
  Bactericidal activity in time-kill (reduction of 3 log10 CFU/ml): no bactericidal activity
[11]
  IC50: > 300 µM
[11]; same value in μg/ml
  IC50: > 145 µg/mL
hERG channel
  IC50: > 100 µM
